Measurements: ChEMBL document CHEMBL5442175, “EUbOPEN Chemogenomics Library - PDSP Secondary Binding” (2024)
Structures can show the parent of a compound that is named as a salt.

Assays:
[1] = molecular target: Sodium-dependent noradrenaline transporter (Homo sapiens, UniProt P23975); assay: (§1) PDSP Secondary Binding target: SLC6A2 - Compounds are tested at 10 uM concentration, plate are incubated at room temperature in the dark for 90 minutes. Reaction are stopped by vacuum filtration onto 0.3% polyethyleneimine soaked filter mats using Filtermate harvester. Scintillation cocktail is then melted onto microwave-dried filters on a hot plate and the radio activity is counted in Microbia counter.
Chain of Sodium-dependent noradrenaline transporter (P23975 whole entry): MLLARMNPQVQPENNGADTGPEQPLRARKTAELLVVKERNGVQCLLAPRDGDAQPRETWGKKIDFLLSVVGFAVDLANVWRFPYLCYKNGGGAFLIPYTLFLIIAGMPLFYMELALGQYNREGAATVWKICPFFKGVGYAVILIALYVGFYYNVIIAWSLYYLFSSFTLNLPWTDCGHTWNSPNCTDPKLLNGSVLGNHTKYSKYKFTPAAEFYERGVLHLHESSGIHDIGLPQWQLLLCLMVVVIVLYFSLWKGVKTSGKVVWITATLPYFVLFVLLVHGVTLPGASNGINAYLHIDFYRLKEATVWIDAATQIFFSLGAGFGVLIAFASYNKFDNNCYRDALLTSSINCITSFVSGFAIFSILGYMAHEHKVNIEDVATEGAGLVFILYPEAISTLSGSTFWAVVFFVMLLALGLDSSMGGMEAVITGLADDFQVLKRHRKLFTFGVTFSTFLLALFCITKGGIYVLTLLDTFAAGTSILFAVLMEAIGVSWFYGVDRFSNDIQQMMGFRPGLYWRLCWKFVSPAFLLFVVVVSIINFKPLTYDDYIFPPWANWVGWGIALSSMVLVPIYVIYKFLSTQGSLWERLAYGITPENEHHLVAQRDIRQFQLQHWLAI

[2] = molecular target: T1, Alpha-2C adrenergic receptor (Homo sapiens, UniProt P18825); assay: as §1, with “ADRA2C” for “SLC6A2”
T1 sequence (P18825 whole entry): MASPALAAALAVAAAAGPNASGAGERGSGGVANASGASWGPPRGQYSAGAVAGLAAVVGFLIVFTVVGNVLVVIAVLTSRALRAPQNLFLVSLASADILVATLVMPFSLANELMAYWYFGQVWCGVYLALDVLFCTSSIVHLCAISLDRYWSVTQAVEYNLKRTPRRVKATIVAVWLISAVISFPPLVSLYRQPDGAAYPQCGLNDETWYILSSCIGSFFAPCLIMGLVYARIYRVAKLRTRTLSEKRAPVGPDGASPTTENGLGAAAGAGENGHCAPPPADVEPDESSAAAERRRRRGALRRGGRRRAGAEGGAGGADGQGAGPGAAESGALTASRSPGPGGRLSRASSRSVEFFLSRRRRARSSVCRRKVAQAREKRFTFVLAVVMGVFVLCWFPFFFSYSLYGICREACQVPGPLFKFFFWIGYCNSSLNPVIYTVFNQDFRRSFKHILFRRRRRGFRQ

[3] = molecular target: T2, Alpha-1A adrenergic receptor (Homo sapiens, UniProt P35348); assay: as §1, with “ADRA1A” for “SLC6A2”
T2 sequence (P35348 whole entry): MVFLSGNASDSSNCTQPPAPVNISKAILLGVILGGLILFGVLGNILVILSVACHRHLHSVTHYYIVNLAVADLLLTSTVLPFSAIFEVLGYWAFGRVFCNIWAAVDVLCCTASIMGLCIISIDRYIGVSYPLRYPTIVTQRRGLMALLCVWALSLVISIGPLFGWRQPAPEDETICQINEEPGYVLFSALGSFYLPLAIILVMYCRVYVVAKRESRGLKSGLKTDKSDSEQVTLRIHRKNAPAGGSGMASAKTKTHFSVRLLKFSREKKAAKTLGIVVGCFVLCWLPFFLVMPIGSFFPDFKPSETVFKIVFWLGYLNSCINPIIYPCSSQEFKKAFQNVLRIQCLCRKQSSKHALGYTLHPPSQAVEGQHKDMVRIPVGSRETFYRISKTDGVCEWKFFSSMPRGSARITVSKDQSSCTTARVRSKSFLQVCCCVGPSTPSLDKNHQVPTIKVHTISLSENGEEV

[4] = molecular target: T3, Alpha-1B adrenergic receptor (Homo sapiens, UniProt P35368); assay: as §1, with “ADRA1B” for “SLC6A2”
T3 sequence (P35368 whole entry): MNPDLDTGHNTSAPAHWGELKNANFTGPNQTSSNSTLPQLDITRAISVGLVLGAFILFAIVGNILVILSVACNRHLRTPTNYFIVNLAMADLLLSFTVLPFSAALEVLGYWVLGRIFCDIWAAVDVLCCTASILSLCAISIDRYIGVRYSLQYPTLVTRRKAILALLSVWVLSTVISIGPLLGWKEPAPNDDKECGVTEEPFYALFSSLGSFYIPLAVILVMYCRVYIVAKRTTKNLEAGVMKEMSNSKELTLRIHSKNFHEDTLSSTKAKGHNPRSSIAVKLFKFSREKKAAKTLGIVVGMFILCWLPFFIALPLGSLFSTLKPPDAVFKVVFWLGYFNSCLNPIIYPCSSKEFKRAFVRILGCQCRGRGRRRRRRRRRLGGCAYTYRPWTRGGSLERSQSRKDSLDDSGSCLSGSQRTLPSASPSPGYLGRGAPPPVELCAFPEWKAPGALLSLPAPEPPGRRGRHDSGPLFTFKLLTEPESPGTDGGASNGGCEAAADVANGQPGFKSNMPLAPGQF

[5] = molecular target: T4, Alpha-2B adrenergic receptor (Homo sapiens, UniProt P18089); assay: as §1, with “ADRA2B” for “SLC6A2”
T4 sequence (P18089 whole entry): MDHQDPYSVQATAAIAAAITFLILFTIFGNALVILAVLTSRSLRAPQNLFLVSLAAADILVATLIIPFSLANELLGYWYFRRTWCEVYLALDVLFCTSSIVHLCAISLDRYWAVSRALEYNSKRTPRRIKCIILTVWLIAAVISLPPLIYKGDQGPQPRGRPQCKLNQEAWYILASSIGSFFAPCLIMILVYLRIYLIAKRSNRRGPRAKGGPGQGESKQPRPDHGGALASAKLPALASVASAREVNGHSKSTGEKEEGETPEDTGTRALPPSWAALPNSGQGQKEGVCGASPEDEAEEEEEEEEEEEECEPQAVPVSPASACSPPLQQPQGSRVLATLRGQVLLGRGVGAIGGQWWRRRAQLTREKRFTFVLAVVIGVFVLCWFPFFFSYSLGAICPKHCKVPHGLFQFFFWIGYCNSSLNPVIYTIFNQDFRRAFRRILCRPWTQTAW

[6] = molecular target: 5-hydroxytryptamine receptor 7 (Homo sapiens, UniProt P34969); assay: as §1, with “HTR7” for “SLC6A2”
Chain of 5-hydroxytryptamine receptor 7 (P34969 whole entry): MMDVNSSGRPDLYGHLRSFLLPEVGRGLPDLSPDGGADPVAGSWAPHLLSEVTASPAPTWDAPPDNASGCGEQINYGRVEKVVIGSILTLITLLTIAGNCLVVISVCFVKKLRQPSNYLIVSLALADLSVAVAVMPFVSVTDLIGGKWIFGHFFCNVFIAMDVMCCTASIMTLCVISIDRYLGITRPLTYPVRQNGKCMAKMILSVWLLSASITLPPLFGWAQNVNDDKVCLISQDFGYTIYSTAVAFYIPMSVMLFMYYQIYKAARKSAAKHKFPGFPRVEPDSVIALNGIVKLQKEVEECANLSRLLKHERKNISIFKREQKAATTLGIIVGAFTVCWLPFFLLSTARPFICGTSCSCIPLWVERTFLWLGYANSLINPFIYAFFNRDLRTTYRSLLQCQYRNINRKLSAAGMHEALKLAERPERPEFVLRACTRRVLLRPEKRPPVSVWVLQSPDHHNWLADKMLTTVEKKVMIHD

[7] = molecular target: T5, 5-hydroxytryptamine receptor 1A (Homo sapiens, UniProt P08908); assay: as §1, with “HTR1A” for “SLC6A2”
T5 sequence (P08908 whole entry): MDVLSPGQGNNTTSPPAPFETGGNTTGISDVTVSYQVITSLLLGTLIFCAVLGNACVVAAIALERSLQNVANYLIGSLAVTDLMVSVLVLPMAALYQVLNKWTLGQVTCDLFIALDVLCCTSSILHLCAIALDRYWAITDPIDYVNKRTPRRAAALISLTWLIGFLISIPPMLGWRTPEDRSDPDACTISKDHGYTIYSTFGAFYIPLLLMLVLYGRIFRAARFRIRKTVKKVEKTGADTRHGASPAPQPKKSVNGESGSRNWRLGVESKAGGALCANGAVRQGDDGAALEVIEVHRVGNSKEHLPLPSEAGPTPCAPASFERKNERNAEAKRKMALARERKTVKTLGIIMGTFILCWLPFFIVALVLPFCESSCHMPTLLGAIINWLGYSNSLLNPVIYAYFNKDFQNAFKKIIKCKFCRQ

[8] = molecular target: T6, Muscarinic acetylcholine receptor M5 (Homo sapiens, UniProt P08912); assay: as §1, with “CHRM5” for “SLC6A2”
T6 sequence (P08912 whole entry): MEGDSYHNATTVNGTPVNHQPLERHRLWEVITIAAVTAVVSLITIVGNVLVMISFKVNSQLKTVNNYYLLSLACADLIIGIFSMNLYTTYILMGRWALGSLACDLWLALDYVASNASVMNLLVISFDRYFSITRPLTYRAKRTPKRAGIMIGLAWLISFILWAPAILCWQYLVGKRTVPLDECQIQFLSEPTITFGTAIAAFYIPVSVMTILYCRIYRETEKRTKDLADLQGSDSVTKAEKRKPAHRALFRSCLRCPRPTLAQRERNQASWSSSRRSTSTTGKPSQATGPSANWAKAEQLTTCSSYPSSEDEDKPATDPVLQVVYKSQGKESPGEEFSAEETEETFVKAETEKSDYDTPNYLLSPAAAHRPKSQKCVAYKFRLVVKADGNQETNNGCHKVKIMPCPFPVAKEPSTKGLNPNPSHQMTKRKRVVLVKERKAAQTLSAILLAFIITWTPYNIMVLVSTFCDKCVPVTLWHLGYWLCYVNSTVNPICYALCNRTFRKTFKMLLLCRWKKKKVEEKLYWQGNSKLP

Translocator protein = Translocator protein (Homo sapiens, UniProt P30536); assay: as §1, with “TSPO” for “SLC6A2”
Chain of Translocator protein (P30536 whole entry): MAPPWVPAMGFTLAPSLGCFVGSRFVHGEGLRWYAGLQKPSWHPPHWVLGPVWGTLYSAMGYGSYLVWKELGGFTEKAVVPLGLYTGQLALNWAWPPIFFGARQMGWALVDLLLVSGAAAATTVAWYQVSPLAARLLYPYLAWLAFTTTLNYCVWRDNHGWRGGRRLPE

[9] = molecular target: 5-hydroxytryptamine receptor 5A (Homo sapiens, UniProt P47898); assay: as §1, with “HTR5A” for “SLC6A2”
Chain of 5-hydroxytryptamine receptor 5A (P47898 whole entry): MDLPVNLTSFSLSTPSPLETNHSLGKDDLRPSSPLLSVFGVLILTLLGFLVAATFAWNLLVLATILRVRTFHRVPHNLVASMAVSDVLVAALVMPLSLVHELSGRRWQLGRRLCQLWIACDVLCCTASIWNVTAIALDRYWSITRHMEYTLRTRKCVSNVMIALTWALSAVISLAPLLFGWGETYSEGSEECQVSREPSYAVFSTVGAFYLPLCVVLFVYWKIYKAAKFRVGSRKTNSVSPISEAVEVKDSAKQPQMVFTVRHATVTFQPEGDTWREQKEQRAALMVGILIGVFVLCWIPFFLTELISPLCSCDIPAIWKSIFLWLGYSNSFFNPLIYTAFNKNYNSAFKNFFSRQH

[10] = molecular target: Sigma intracellular receptor 2 (Homo sapiens, UniProt Q5BJF2); assay: as §1, with “TMEM97” for “SLC6A2”
Chain of Sigma intracellular receptor 2 (Q5BJF2 whole entry): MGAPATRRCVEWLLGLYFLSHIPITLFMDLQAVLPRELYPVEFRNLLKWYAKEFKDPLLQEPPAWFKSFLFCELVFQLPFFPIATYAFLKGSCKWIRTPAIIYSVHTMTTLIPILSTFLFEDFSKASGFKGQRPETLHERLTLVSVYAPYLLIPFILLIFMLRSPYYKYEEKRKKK

D(1B) dopamine receptor = D(1B) dopamine receptor (Homo sapiens, UniProt P21918); assay: as §1, with “DRD5” for “SLC6A2”
Chain of D(1B) dopamine receptor (P21918 whole entry): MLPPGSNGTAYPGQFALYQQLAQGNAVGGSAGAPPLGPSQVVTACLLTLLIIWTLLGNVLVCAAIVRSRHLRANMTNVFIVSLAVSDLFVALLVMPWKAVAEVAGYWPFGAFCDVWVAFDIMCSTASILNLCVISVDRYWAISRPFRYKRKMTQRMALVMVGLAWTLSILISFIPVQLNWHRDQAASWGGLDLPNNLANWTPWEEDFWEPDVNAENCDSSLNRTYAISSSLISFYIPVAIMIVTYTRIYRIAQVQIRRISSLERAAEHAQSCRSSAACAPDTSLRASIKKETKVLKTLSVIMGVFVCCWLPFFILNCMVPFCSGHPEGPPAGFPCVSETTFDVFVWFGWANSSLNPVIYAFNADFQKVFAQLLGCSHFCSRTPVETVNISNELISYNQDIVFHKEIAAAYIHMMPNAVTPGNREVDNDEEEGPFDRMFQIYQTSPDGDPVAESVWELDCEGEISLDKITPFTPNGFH

[11] = molecular target: Sodium-dependent dopamine transporter (Homo sapiens, UniProt Q01959); assay: as §1, with “SLC6A3” for “SLC6A2”
Chain of Sodium-dependent dopamine transporter (Q01959 whole entry): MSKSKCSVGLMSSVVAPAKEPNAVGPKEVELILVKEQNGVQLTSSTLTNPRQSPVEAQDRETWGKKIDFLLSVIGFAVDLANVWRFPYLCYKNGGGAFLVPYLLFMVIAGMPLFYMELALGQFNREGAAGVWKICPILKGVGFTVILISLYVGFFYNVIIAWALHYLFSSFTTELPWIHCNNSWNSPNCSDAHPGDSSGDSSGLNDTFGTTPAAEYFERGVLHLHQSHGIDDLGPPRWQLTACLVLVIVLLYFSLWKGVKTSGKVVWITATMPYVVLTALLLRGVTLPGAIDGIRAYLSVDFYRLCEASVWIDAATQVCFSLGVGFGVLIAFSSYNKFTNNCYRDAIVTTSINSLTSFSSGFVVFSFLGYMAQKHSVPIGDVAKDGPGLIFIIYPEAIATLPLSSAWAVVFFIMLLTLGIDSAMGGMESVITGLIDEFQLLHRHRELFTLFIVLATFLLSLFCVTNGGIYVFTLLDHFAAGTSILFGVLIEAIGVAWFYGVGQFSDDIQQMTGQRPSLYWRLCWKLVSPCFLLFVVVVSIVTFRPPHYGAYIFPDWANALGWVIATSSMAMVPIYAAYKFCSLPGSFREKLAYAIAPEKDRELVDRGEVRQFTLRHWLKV

[12] = molecular target: 5-hydroxytryptamine receptor 1B (Homo sapiens, UniProt P28222); assay: as §1, with “HTR1B” for “SLC6A2”
Chain of 5-hydroxytryptamine receptor 1B (P28222 whole entry): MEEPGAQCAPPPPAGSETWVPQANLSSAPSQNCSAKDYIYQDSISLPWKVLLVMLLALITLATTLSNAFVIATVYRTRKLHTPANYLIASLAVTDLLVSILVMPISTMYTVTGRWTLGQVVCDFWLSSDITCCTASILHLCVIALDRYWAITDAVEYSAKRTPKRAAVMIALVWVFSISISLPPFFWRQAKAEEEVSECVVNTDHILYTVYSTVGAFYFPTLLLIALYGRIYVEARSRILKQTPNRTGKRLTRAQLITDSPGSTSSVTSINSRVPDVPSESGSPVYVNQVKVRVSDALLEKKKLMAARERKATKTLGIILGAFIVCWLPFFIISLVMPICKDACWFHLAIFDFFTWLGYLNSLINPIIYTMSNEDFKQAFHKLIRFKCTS

[13] = molecular target: 5-hydroxytryptamine receptor 1D (Homo sapiens, UniProt P28221); assay: as §1, with “HTR1D” for “SLC6A2”
Chain of 5-hydroxytryptamine receptor 1D (P28221 whole entry): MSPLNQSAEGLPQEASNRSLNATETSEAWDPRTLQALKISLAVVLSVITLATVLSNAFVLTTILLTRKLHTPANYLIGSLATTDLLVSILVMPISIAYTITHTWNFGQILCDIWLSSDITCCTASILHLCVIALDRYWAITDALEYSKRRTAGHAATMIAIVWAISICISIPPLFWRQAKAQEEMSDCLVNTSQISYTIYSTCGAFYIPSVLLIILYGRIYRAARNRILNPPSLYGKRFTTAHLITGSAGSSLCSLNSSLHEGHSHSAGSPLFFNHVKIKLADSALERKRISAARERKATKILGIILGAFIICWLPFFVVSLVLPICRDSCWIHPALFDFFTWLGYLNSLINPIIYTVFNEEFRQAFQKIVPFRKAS

[14] = molecular target: Beta-3 adrenergic receptor (Homo sapiens, UniProt P13945); assay: as §1, with “ADRB3” for “SLC6A2”
Chain of Beta-3 adrenergic receptor (P13945 whole entry): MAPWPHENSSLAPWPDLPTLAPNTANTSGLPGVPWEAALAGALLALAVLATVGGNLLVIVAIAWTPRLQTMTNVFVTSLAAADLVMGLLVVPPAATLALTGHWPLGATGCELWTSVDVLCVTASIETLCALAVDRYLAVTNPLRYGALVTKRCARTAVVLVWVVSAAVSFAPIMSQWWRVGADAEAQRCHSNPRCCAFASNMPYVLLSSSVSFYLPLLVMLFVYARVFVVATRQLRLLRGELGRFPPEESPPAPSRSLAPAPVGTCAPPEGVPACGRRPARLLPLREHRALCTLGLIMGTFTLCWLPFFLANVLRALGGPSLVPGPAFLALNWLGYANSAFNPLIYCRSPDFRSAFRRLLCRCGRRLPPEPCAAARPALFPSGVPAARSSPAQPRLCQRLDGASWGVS

[15] = molecular target: T7, Alpha-1D adrenergic receptor (Homo sapiens, UniProt P25100); assay: as §1, with “ADRA1D” for “SLC6A2”
T7 sequence (P25100 whole entry): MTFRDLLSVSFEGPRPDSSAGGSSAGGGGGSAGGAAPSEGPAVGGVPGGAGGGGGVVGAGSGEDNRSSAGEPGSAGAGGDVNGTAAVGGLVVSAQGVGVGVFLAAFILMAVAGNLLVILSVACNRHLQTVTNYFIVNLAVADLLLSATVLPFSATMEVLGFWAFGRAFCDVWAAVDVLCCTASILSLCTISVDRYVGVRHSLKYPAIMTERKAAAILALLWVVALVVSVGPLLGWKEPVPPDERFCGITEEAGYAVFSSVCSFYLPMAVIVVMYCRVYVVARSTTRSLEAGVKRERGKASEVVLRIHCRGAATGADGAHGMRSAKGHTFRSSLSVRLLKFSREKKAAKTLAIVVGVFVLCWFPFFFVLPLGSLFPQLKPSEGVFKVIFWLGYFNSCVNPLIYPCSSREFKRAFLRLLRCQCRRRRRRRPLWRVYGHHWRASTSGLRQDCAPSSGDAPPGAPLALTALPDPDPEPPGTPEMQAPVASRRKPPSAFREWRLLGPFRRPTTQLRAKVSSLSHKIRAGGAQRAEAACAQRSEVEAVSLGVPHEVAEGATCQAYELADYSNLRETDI

[16] = molecular target: Sodium-dependent serotonin transporter (Homo sapiens, UniProt P31645); assay: as §1, with “SLC6A4” for “SLC6A2”
Chain of Sodium-dependent serotonin transporter (P31645 whole entry): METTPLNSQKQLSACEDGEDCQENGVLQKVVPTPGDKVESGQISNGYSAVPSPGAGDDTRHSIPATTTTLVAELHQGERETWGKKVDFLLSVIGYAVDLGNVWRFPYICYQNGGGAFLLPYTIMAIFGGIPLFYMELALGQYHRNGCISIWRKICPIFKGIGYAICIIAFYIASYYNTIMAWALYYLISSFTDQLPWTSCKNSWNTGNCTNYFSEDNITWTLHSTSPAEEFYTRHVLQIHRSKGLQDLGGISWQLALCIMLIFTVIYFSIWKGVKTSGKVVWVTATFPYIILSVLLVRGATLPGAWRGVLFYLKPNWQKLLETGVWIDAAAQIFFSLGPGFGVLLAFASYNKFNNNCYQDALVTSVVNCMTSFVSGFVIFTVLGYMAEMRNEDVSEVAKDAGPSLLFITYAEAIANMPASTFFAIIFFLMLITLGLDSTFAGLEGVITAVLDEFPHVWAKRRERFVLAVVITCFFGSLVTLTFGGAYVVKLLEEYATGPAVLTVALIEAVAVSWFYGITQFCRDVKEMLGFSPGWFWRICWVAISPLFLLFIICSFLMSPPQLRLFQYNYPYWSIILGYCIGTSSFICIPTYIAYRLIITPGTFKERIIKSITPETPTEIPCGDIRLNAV

`Cc1cccc([C@H](C)c2cnc[nH]2)c1C` [DEXMEDETOMIDINE HYDROCHLORIDE] was tested, and the Ki [1] was 3260 nM, the Ki [2] was 39.4 nM and the Ki [3] was 749 nM. For the same molecule, the Ki [4] was 2980 nM, the Ki [5] was 12.1 nM and the Ki [6] was 923 nM.
`COc1ccnc(N2CCC3(CCCN(Cc4c[nH]c5ccccc45)C3=O)CC2)n1` was tested, and the Ki [7] was 3260 nM, the Ki [8] was over 10000 nM and the Ki (Translocator protein) was 803 nM.
With `O=C(O)c1cc(-c2ccc(C3CCNCC3)cc2)c2ccc(-c3ccc(C(F)(F)F)cc3)cc2c1` the Ki [9] was 2400 nM, the Ki [1] was 1850 nM and the Ki [10] was 1060 nM. It also gave a Ki (D(1B) dopamine receptor) of 1050 nM, a Ki [7] of 2540 nM and a Ki [8] of 2190 nM. The Ki [11] was 1220 nM, the Ki [12] was 1160 nM and the Ki [13] was 1190 nM. It also gave a Ki [6] of 3300 nM.
In the case of `Cc1c(OCc2cccc(-c3ccc(C(=O)O)cc3)c2)cc2c(c1C)C(=O)C(C1CCCC1)C2` (stereo not drawn), the Ki [14] is reported as 5050 nM, the Ki [15] is reported as over 10000 nM and the Ki [16] is reported as over 10000 nM. It also gave a Ki [4] of over 10000 nM.
